Laboratory results reported in ChEMBL document CHEMBL4480380, “Identification and biological evaluation of novel benzothiazole derivatives bearing a pyridine-semicarbazone moiety as apoptosis inducers via activation of procaspase-3 to caspase-3” (Medchemcomm, 2019).
Active and inactive are the calls of the source. No cut-off for these calls is given here.

Assays:
[1] = test system: U-937; experiment: Antiproliferative activity against human procaspase-3 over-expressing U937 cells after 24 hrs by CCK-8 assay; type: functional, cell-based; conditions: U-937, 24 h
[2] = test system: MCF7; experiment: Antiproliferative activity against human MCF7 cells after 24 hrs by CCK-8 assay; type: functional, cell-based; conditions: MCF7, 24 h
[3] = Selectivity ratio of IC50 for human MCF7 cells to IC50 for human procaspase-3 over-expressing U937 cells; type: functional
[4] = test system: U-937; experiment: Induction of apoptosis in human U937 cells assessed as caspase-3 activity at 30 uM using Ac-DEVD-AFC as substrate preincubated for 16 hrs followed by substrate addition and measured after 60 mins by fluorescence assay (reference value: 7+/- 1%); type: functional
[5] = test system: U-937; experiment: Induction of apoptosis in human U937 cells assessed as late apoptotic cells at 5.2 uM after 24 hrs by Annexin V-FITC/propidium iodide staining-based flow cytometric analysis (reference value: 3.27%); type: functional
[6] = Intrinsic clearance in human liver microsomes in presence of NADPH by LC-MS analysis; type: ADME, Microsome; conditions: read-out: CLH
[7] = test system: U-937; experiment: Induction of apoptosis in human U937 cells assessed as early apoptotic cells at 5.2 uM after 24 hrs by Annexin V-FITC/propidium iodide staining-based flow cytometric analysis (reference value: 4.88%); type: functional
[8] = Toxicity in zebrafish AB embryos at 5 to 20 uM measured at 24 to 72 hrs post fertilization by stereo microscopic analysis; design: species or system Danio rerio; conditions: in vivo
[9] = test system: U-937; experiment: Induction of apoptosis in human U937 cells assessed as late apoptotic cells at 2.6 uM after 48 hrs by Annexin V-FITC/propidium iodide staining-based flow cytometric analysis (reference value: 3.89%); type: functional
[10] = test system: U-937; experiment: Induction of apoptosis in human U937 cells assessed as late apoptotic cells at 5.2 uM after 48 hrs by Annexin V-FITC/propidium iodide staining-based flow cytometric analysis (reference value: 3.89%); type: functional
[11] = test system: U-937; experiment: Induction of apoptosis in human U937 cells assessed as early apoptotic cells at 2.6 uM after 48 hrs by Annexin V-FITC/propidium iodide staining-based flow cytometric analysis (reference value: 6.16%); type: functional
[12] = Intrinsic clearance in rat liver microsomes in presence of NADPH by LC-MS analysis; type: ADME, Microsome; conditions: read-out: CLH
[13] = Half life in rat liver microsomes in presence of NADPH by LC-MS analysis; type: ADME, Microsome
[14] = biological target: T1, Caspase-3 (Homo sapiens) (UniProt P42574); experiment: Activation of procaspase-3 (unknown origin) at 10 uM using Ac-DEVD-AFC as substrate preincubated for 4 hrs followed by substrate addition and measured after 5 mins by fluorescence assay relative to control
T1 sequence (whole entry): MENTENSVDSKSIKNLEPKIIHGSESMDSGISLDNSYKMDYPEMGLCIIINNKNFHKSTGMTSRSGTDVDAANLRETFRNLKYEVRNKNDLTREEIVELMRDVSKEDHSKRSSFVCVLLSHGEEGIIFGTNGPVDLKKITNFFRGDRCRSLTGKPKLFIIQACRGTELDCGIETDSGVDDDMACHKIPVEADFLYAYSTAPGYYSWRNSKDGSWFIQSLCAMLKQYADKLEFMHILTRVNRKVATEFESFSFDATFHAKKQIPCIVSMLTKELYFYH

[15] = test system: U-937; experiment: Induction of apoptosis in human U937 cells assessed as late apoptotic cells at 2.6 uM after 24 hrs by Annexin V-FITC/propidium iodide staining-based flow cytometric analysis (reference value: 3.27%); type: functional
[16] = test system: U-937; experiment: Induction of apoptosis in human U937 cells assessed as early apoptotic cells at 2.6 uM after 24 hrs by Annexin V-FITC/propidium iodide staining-based flow cytometric analysis (reference value: 4.88%); type: functional
[17] = Half life in human liver microsomes in presence of NADPH by LC-MS analysis; type: ADME, Microsome
[18] = organism: Danio rerio; experiment: Induction of apoptosis in zebrafish AB embryos assessed as increase in bax mRNA expression at 40 to 60 uM after 24 hrs post fertilization by RT-PCR analysis; type: functional, organism-based
[19] = organism: Danio rerio; experiment: Induction of apoptosis in zebrafish AB embryos assessed as accumulation of dying cells in head at 40 to 60 uM after 24 hrs post fertilization by acridine orange staining-based fluorescence microscopic analysis; type: functional, organism-based
[20] = Intrinsic clearance in mouse liver microsomes in presence of NADPH by LC-MS analysis; type: ADME, Microsome; conditions: read-out: CLH
[21] = test system: U-937; experiment: Induction of apoptosis in human U937 cells assessed as early apoptotic cells at 5.2 uM after 48 hrs by Annexin V-FITC/propidium iodide staining-based flow cytometric analysis (reference value: 6.16%); type: functional
[22] = Toxicity in zebrafish AB embryos assessed as induction of mortality at 40 uM after 72 hrs post fertilization by stereo microscopic analysis; design: species or system Danio rerio; conditions: in vivo
[23] = organism: Danio rerio; experiment: Induction of apoptosis in zebrafish AB embryos assessed as accumulation of dying cells in cranial neural crest at 40 to 60 uM after 24 hrs post fertilization by acridine orange staining-based fluorescence microscopic analysis; type: functional, organism-based
[24] = Half life in mouse liver microsomes in presence of NADPH by LC-MS analysis; type: ADME, Microsome

**Q.** Which IC50 [1] does the source give for `CN(C)Cc1ccc(NC(=O)N/N=C/c2ccccn2)cc1` here?
**A.** > 40 µM

**Q.** And the IC50 [2]?
**A.** > 40 µM

**Q.** Which IC50 [1] does the source give for `C=CCc1cccc(/C=N/NC(=O)CN2CCN(Cc3ccccc3)CC2)c1O` [PAC-1] here?
**A.** 6 µM

**Q.** What about the IC50 [2] of the same compound?
**A.** > 40 µM

**Q.** What about the “Ratio IC50” value [3] of the same compound?
**A.** 6.6

**Q.** What about the Activity [4] of the same compound?
**A.** 100%

**Q.** For `CCN(CC)Cc1ccc2nc(NC(=O)N/N=C(\C)c3ccc(F)cc3)sc2c1`, which IC50 [1] is on record?
**A.** > 40 µM

**Q.** What about the IC50 [2] of the same compound?
**A.** 12.3 µM

**Q.** What about the “Ratio IC50” value [3] of the same compound?
**A.** <1

**Q.** And the Activity [4]?
**A.** 40%

**Q.** What does the source list for `CN(C)Cc1ccc2nc(NC(=O)N/N=C/c3ccccn3)sc2c1`?
**A.** IC50 [1]: 23.2 µM; IC50 [2]: > 40 µM; Ratio IC50 [3]: 1.6

**Q.** For `CN(C)Cc1ccc(NC(=O)NN=C(c2ccccc2)c2ccccc2)cc1`, which IC50 [1] is on record?
**A.** > 25 µM

**Q.** And the IC50 [2]?
**A.** 12.1 µM

**Q.** What about the “Ratio IC50” value [3] of the same compound?
**A.** <1

**Q.** And the Activity [4]?
**A.** 28%

**Q.** With `C/C(=N\NC(=O)Nc1nc2ccc(CN3CCC(C)CC3)cc2s1)c1ccccn1` as the compound, how does the Activity [5] read?
**A.** 8.15%

**Q.** And the CLint scaled [6]?
**A.** 22.3 mL/min/kg

**Q.** And the IC50 [1]?
**A.** 5.2 µM

**Q.** And the Activity [7]?
**A.** 19.79%

**Q.** And the Activity [8]?
**A.** Non-Toxic

**Q.** And the Activity [9]?
**A.** 9.17%

**Q.** What about the Activity [10] of the same compound?
**A.** 18.7%

**Q.** What about the Activity [11] of the same compound?
**A.** 19.59%

**Q.** And the CLint scaled [12]?
**A.** 26 mL/min/kg

**Q.** What about the half-life [13] of the same compound?
**A.** 95.5 min

**Q.** What about the Activity [14] of the same compound?
**A.** 77.8%

**Q.** What about the Activity [15] of the same compound?
**A.** 6.3%

**Q.** What about the Activity [16] of the same compound?
**A.** 16.16%

**Q.** And the half-life [17]?
**A.** 77.9 min

**Q.** And the IC50 [2]?
**A.** 12.4 µM

**Q.** What about the Activity [18] of the same compound?
**A.** Active

**Q.** And the Activity [19]?
**A.** Active

**Q.** What about the “Ratio IC50” value [3] of the same compound?
**A.** 2.3

**Q.** What about the CLint scaled [20] of the same compound?
**A.** 102 mL/min/kg

**Q.** What about the Activity [21] of the same compound?
**A.** 28.06%

**Q.** And the Activity [22]?
**A.** Toxic

**Q.** What about the Activity [23] of the same compound?
**A.** Active

**Q.** What about the Activity [4] of the same compound?
**A.** 99%

**Q.** What about the half-life [24] of the same compound?
**A.** 53.6 min

**Q.** Which IC50 [1] does the source give for `CCN(CC)Cc1ccc2nc(NC(=O)N/N=C/c3ccccn3)sc2c1` here?
**A.** 24.8 µM

**Q.** What about the IC50 [2] of the same compound?
**A.** > 40 µM

**Q.** What about the “Ratio IC50” value [3] of the same compound?
**A.** 1.6

**Q.** Which IC50 [1] does the source give for `CC1CCN(Cc2ccc(NC(=O)NN=C(c3ccccc3)c3ccccc3)cc2)CC1` here?
**A.** > 25 µM

**Q.** What about the IC50 [2] of the same compound?
**A.** 13.3 µM

**Q.** And the “Ratio IC50” value [3]?
**A.** <1

**Q.** And the Activity [4]?
**A.** 58%

**Q.** Which IC50 [1] does the source give for `C/C(=N\NC(=O)Nc1nc2ccc(CN3CCC(C)CC3)cc2s1)c1cnccn1` here?
**A.** > 40 µM

**Q.** And the IC50 [2]?
**A.** 11.8 µM

**Q.** What about the “Ratio IC50” value [3] of the same compound?
**A.** <1

**Q.** Which IC50 [1] does the source give for `C/C(=N\NC(=O)Nc1nc2ccc(CN(C)C)cc2s1)c1cnccn1` here?
**A.** > 40 µM

**Q.** And the IC50 [2]?
**A.** > 40 µM

**Q.** With `O=C(c1ccc(F)cc1)C1CCN(CCn2c(=O)[nH]c3ccccc3c2=O)CC1` [KETANSERIN] as the compound, how does the CLint scaled [6] read?
**A.** 48.2 mL/min/kg

**Q.** And the CLint scaled [12]?
**A.** 173 mL/min/kg

**Q.** And the half-life [13]?
**A.** 14.4 min

**Q.** And the half-life [17]?
**A.** 36.1 min

**Q.** And the CLint scaled [20]?
**A.** 267 mL/min/kg

**Q.** What about the half-life [24] of the same compound?
**A.** 20.5 min

**Q.** Which results are given for `C/C(=N\NC(=O)Nc1ccc(CN2CCC(C)CC2)cc1)c1cnccn1`?
**A.** IC50 [1]: > 40 µM; IC50 [2]: > 40 µM

**Q.** Which IC50 [1] does the source give for `CC1CCN(Cc2ccc(NC(=O)N/N=C/c3ccccn3)cc2)CC1` here?
**A.** > 40 µM

**Q.** And the IC50 [2]?
**A.** > 40 µM
